Common to all, as to test: NCI 60 cell line screen
Holding throughout (format): cell-based

In experiment [1] the test system is 786-0. As to conditions: Homo sapiens; 786-0, Renal Cancer; read-out: Percent growth. An outline of the steps:
(§1)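 SRB read-out (515 nm) after 48 h drug exposure, 37 °C, RPMI 1640/5% FBS; five-point dilution series, top conc. 10 µM. Percent growth from Tz, control and treated absorbances; GI50 and TGI derived.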

The test system of experiment [2] is A498. The following applies: Homo sapiens; A498, Renal Cancer; read-out: Percent growth. An outline of the steps: as §1
For experiment [3], the system named is DU-145. As to conditions: Homo sapiens; DU-145, Prostate Cancer; read-out: Percent growth. In short, it runs like this: as §1
The subject of experiment [4] is HCT-116. As to conditions: Homo sapiens; HCT-116, Colon Cancer; read-out: Percent growth. In short, it runs like this:
as §1

Experiment [5] relates to HS 578T. The following applies: Homo sapiens, Breast Cancer, read-out: Percent growth. In short, it runs like this: as §1
Experiment [6] deals with IGROV1. As to conditions: Homo sapiens, IGROV-1; IGROV1, Ovarian Cancer; read-out: Percent growth. In short, it runs like this:
as §1

In experiment [7] the test system is MCF7. The following applies: Homo sapiens; MCF7, Breast Cancer; read-out: Percent growth. An outline of the steps:
as §1

The test system of experiment [8] is MDA-MB-231/ATCC. As to conditions: Homo sapiens, Breast Cancer, read-out: Percent growth. In short, it runs like this: as §1
For experiment [9], the system named is NCI-H322M. The following applies: Homo sapiens, Non-Small Cell Lung Cancer, read-out: Percent growth. In short, it runs like this:
as §1

Experiment [10] has as its system OVCAR-3. As to conditions: Homo sapiens; OVCAR-3, Ovarian Cancer; read-out: Percent growth. An outline of the steps:
as §1

Experiment [11] has as its system OVCAR-5. As to conditions: Homo sapiens; OVCAR-5, Ovarian Cancer; read-out: Percent growth. An outline of the steps:
as §1

Experiment [12] has as its system OVCAR-8. As to conditions: Homo sapiens; OVCAR-8, Ovarian Cancer; read-out: Percent growth. An outline of the steps:
as §1

Experiment [13] relates to SF-268. The following applies: Homo sapiens; SF-268, CNS-Cancer; read-out: Percent growth. In short, it runs like this: as §1
The test system of experiment [14] is SF-539. As to conditions: Homo sapiens; SF-539, CNS-Cancer; read-out: Percent growth. An outline of the steps:
as §1

Experiment [15] relates to SK-MEL-2. The following applies: Homo sapiens; SK-MEL-2, Melanoma; read-out: Percent growth. In short, it runs like this:
as §1

Experiment [16] deals with SK-OV-3. As to conditions: Homo sapiens; SK-OV-3, Ovarian Cancer; read-out: Percent growth. An outline of the steps:
as §1

For experiment [17], the system named is SN12C. As to conditions: Homo sapiens, Renal Cancer, read-out: Percent growth. An outline of the steps:
as §1

Experiment [18] concerns SNB-19. The following applies: Homo sapiens; SNB-19, CNS-Cancer; read-out: Percent growth. In short, it runs like this:
as §1

Experiment [19] relates to TK-10. As to conditions: Homo sapiens; TK-10, Renal Cancer; read-out: Percent growth. An outline of the steps: as §1
Experiment [20] deals with UACC-62. As to conditions: Homo sapiens; UACC-62, Melanoma; read-out: Percent growth. In short, it runs like this: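 48 h continuous exposure, five doses, highest 10 µM; cells in RPMI 1640 + 5% FBS at 37 °C, 5% CO2. TCA fixation, sulforhodamine B staining, A515.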

This is an account of results in publication PMC8508980, “Design, Synthesis and Anticancer Profile of New 4-(1H-benzo[d]imidazol-1-yl)pyrimidin-2-amine-Linked Sulfonamide Derivatives with V600EBRAF Inhibitory Effect” (International Journal of Molecular Sciences, 2021).

Each structure is given as a SMILES string.

With `O=S(=O)(NCCNc1nccc(-n2cnc3ccccc32)n1)c1ccc(F)cc1` [12b, N-(2-((4-(1H-benzo [d]imidazol-1-yl)pyrimidin-2-yl)amino)ethyl)-4-fluorobenzenesulfonamide], the activity at 10 µM in experiment [1] was found to be 102%; in experiment [2], 80.7%; in experiment [3], 91.5%; in experiment [4], 83.6%; in [5], 85.5%; in experiment [6] it was 89.3%. The activity at 10 µM in experiment [7] came to 87.7%; in experiment [8] it was 81.8%; in experiment [9] it was 95.6%; in [10] it was 106%; in experiment [11] it was 86.6%; in experiment [12] it was 89%. Besides, the activity at 10 µM in [13] stood at 88.2%; in experiment [14], 83.7%; in [15], 101%; in experiment [16] it was 102%; in experiment [17], 89.7%; in [18] it was 93%. In addition, the activity at 10 µM in experiment [19] was 97.8%; in experiment [20], 71.3%.

Regarding `O=S(=O)(NCCCNc1nccc(-n2cnc3ccccc32)n1)c1ccc(Br)cc1` [12k, N-(3-((4-(1H-benzo [d]imidazol-1-yl)pyrimidin-2-yl)amino)propyl)-4-bromo benzenesulfonamide], the activity at 10 µM in experiment [1] came to 91.7%; in experiment [2] it was 77.2%; in [3], 96.5%; in experiment [4] it was 90.3%; in [5], 90%; in experiment [6], 101%. Besides, the activity at 10 µM in [7] is 86.7%; in experiment [8] it was 83.6%; in [9], 103%; in experiment [10], 104%; in [11], 97%; in [12], 82.5%. For the same compound, the activity at 10 µM stood at 91.2% in experiment [13]; 85.2% in [14]; 105% in experiment [15]; 109% in [16]; 89.2% in experiment [17]; 98.6% in [18]. For the same compound, the activity at 10 µM stood at 97.8% in [19] and 77.3% in experiment [20].

With `O=S(=O)(NCCNc1nccc(-n2cnc3ccccc32)n1)c1ccc(Cl)cc1` [12c, N-(2-((4-(1H-benzo [d]imidazol-1-yl)pyrimidin-2-yl)amino)ethyl)-4-chlorobenzenesulfonamide], the activity at 10 µM amounted to 99% in experiment [1]; 84.8% in experiment [2]; 104% in experiment [3]; 94.6% in experiment [4]; 88.1% in experiment [5]; 98.2% in experiment [6]. Further, the activity at 10 µM in [7] worked out at 87.9%; in experiment [8] it was 90.5%; in [9], 95.3%; in experiment [10], 106%; in experiment [11], 91.7%; in experiment [12], 102%. The activity at 10 µM in [13] was 92.3%; in experiment [14] it was 91.2%; in experiment [15], 109%; in experiment [16], 112%; in [17] it was 96.6%; in [18], 97.7%. For the same compound, the figures for the activity at 10 µM in experiment [19] and in experiment [20] were 101% and 86.4%, respectively.

As for `COc1ccc(S(=O)(=O)NCCNc2nccc(-n3cnc4ccccc43)n2)cc1` [12f, N-(2-((4-(1H-benzo [d]imidazol-1-yl)pyrimidin-2-yl)amino)ethyl)-4-methoxy benzenesulfonamide], the activity at 10 µM in experiment [1] came out at 93%; in [2] it was 82.9%; in experiment [3], 99.9%; in experiment [4], 98%; in experiment [5], 84.1%; in experiment [6] it was 89%. Besides, the activity at 10 µM in experiment [7] was determined as 86.2%; in experiment [8], 92.1%; in experiment [9] it was 92.6%; in [10] it was 103%; in [11] it was 93.9%; in experiment [12], 91.5%. Moreover, the activity at 10 µM in experiment [13] turned out to be 86.7%; in [14], 96.2%; in experiment [15], 106%; in experiment [16] it was 97.5%; in experiment [17], 88.5%; in [18] it was 95.3%. The activity at 10 µM in experiment [19] is 92.5%; in experiment [20], 76.6%.

Take `O=S(=O)(NCCNc1nccc(-n2cnc3ccccc32)n1)c1ccccc1` [12a, N-(2-((4-(1H-benzo [d]imidazol-1-yl)pyrimidin-2-yl)amino)ethyl)benzenesulfonamide]: the activity at 10 µM was 103% in experiment [1]; 88.6% in experiment [2]; 109% in experiment [3]; 94.6% in [4]; 93.5% in experiment [5]; 89.9% in experiment [6]. The activity at 10 µM in experiment [7] came out at 89.3%; in experiment [8], 87.6%; in [9], 94.9%; in experiment [10], 109%; in experiment [11], 92.5%; in experiment [12] it was 98%. Also, the activity at 10 µM in experiment [13] turned out to be 94.1%; in [14], 96.1%; in experiment [15], 115%; in experiment [16], 101%; in experiment [17] it was 85.1%; in [18], 99.6%. Further, the activity at 10 µM in experiment [19] turned out to be 104%; in experiment [20], 78.3%.

On to `O=S(=O)(NCCCNc1nccc(-n2cnc3ccccc32)n1)c1ccccc1` [12h, N-(3-((4-(1H-benzo [d]imidazol-1-yl)pyrimidin-2-yl)amino)propyl)benzenesulfonamide], for which the activity at 10 µM was 98.8% in experiment [1]; 78.4% in [2]; 99.2% in experiment [3]; 90.3% in experiment [4]; 93.7% in experiment [5]; 107% in experiment [6]. Also, the activity at 10 µM in experiment [7] is 87.7%; in experiment [8], 92.4%; in [9], 109%; in experiment [10] it was 106%; in experiment [11], 99.1%; in experiment [12] it was 84%. Also, the activity at 10 µM in [13] worked out at 91.7%; in [14] it was 89.4%; in [15], 108%; in [16] it was 105%; in experiment [17] it was 94.3%; in experiment [18] it was 103%. The activity at 10 µM in experiment [19] is 103%; in experiment [20], 85%.

For the compound `O=S(=O)(NCCCNc1nccc(-n2cnc3ccccc32)n1)c1cccc2ccccc12` [12n, N-(3-((4-(1H-benzo [d]imidazol-1-yl)pyrimidin-2-yl)amino)propyl)naphthalene-1-sulfonamide], the activity at 10 µM in experiment [1] was found to be 91.2%; in experiment [2], 72.1%; in experiment [3], 94.5%; in experiment [4], 75.9%; in experiment [5] it was 78.3%; in experiment [6] it was 98.1%. Moreover, the activity at 10 µM was determined as 83.4% in experiment [7]; 83.1% in experiment [8]; 103% in experiment [9]; 96.8% in experiment [10]; 96.3% in [11]; 82.5% in experiment [12]. The activity at 10 µM is 86.8% in [13]; 87.9% in experiment [14]; 97.8% in experiment [15]; 92.5% in experiment [16]; 85.9% in [17]; 94.2% in [18]. Also, the activity at 10 µM was 95.7% in experiment [19] and 62% in experiment [20].
